Experimental data taken from patent US12128040B2, “Selective estrogen receptor degraders” (Eli Lilly and Company, priority 2018, dated 2024).
Numbering of substitutions follows the chain as printed.

What was measured:
[1] = Rat oral bioavailability assay; type: in vivo; conditions: plasma, Sprague-Dawley rats, IV 1 mg/kg, PO 10 mg/kg, read-out: oral bioavailability (% F)
Method: Administer the test compound to Sprague-Dawley rats IV at 1 mg/kg (using vehicles of either: 20% CAPTISOL© in 25 mM sodium phosphate buffer, pH2 quantum satis; or 25% DMA, 15% EtOH, 10% propylene glycol, 25% 2-pyrrolidone, and 25% purified water) and PO at 10 mg/kg (using a vehicle of 1% hydroxyethyl cellulose, 0.25% polysorbate 80, 0.05% Antifoam 1510-US, and purified water quantum satis). Collect serial blood samples at 0.08, 0.25, 0.5, 1, 2, 4, 8, and 12 hours post dose for IV bolus and at 0.25, 0.5, 1, 2, 4, 8, and 12 hours post dose after oral administration. After treatment with an EDTA […], obtain plasma by centrifugation and stored at −70° C. until analysis by LC-MS/MS. Determine the test compound concentration in plasma and upload into the Watson LIMS™ system where noncompartmental analysis is used to calculate Area Under the Curve (AUC) for both IV and PO arms. Calculate oral bioavailability (% F) via the following equation, % F=(AUCPO×DoseIV)/(AUCIV×DosePO)×100.

ERα (Y537S mutant) = target: T1, ERα (Y537S mutant) (Homo sapiens, UniProt P03372, Y537S); test: ERα (Y537S mutant) competition binding assay; conditions: 3H-estradiol competition, n=3
T1 sequence (P03372 1-595 Y537S): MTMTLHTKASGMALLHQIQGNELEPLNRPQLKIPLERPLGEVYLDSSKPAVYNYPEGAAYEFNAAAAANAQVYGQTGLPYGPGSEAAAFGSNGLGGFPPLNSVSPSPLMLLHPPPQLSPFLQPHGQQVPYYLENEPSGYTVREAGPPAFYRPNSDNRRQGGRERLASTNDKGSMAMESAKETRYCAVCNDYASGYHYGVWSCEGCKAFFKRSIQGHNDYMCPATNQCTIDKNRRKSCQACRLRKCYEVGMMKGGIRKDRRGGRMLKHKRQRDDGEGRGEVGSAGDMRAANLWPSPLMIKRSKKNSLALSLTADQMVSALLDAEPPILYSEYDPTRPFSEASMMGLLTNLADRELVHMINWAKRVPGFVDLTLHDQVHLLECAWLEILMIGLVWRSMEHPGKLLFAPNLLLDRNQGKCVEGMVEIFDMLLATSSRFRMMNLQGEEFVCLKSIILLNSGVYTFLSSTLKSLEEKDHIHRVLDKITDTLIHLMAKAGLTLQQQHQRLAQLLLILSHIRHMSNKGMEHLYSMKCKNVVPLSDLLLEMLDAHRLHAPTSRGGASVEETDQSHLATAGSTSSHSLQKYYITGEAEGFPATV
Method: (§1) The purpose of the following ER competition binding assays is to determine the binding affinity of a test compound against ERα (wild type) and ERα (Y537S mutant) See Fanning et al., “Estrogen receptor alpha somatic mutations Y537S and D538G confer breast cancer endocrine resistance by stabilizing the activating function-2 binding conformation,” eLife 2016; 5:e12792.
(§2) Run the competition binding assay in a buffer containing 50 mM HEPES, pH 7.5, 1.5 mM EDTA, 150 mM NaCl, 10% glycerol, 1 mg/mL ovalbumin, and 5 mM DTT, using 0.025 µCi per well ^3H-estradiol (118 Ci/mmol, 1 mCi/mL), 7.2 ng/well ERα (wild type), or 7.2 ng/well ERα (Y537S mutant). Add the test compound at 10 different concentrations ranging from 10,000 nM to 0.5 nM, and determine nonspecific binding in the presence of 1 μM of […]. Incubate the binding reaction (140 μL) for 4 hours at room temperature, and then add cold dextran-charcoal buffer (70 μL) (containing per 50 mL of assay buffer, 0.75 g of charcoal and 0.25 g of dextran) to each reaction. Mix the plates for 8 minutes on an orbital shaker at 4° C. and then centrifuge at 3000 rpm at 4° C. for 10 minutes. […] After an incubation of 2.5 hours, read the plates in a Wallac Microbeta counter. […]

ERα (wild type) = target: T2, ERα (wild type) (Homo sapiens, UniProt P03372); test: ERα (wild type) competition binding assay; conditions: recombinant ERα wild type, 3H-estradiol competition, n=3
T2 sequence (P03372 1-595): T1 sequence (P03372 1-595 Y537S) with S537Y
Method: as §1, §2

O=C(c1ccc(OCCN2CC(CF)C2)cc1)c1c(-c2ccc(C(F)(F)F)cc2F)cnc2cc(O)ccc12 [Example 1, (4-{2-[3-(Fluoromethyl)azetidin-1-yl]ethoxy}phenyl){3-[2-fluoro-4-(trifluoromethyl)phenyl]-7-hydroxyquinolin-4-yl}methanone]
bioavailability [1]: 27%
Ki (ERα (Y537S mutant)): 21.2 ± 2.12 nM
Ki (ERα (wild type)): 3.78 ± 0.74 nM
